From US11485742B2, “2-azaspiro[3.4]octane derivatives as M4 agonists” (NOVARTIS AG, priority 2019, dated 2022) come the findings set out here.

A value given as a limit tells only on which side of the number the result lay.

The term EC50 denotes the concentration giving half of the maximal effect.

What all share (format): cell-based
Assay [1] deals with T1, human cloned CHRM5 receptor (Homo sapiens, UniProt P08912).
T1 construct: expressed in transfected cells; host or cells: CHO (M5_CHO)
T1 sequence (P08912 1-532): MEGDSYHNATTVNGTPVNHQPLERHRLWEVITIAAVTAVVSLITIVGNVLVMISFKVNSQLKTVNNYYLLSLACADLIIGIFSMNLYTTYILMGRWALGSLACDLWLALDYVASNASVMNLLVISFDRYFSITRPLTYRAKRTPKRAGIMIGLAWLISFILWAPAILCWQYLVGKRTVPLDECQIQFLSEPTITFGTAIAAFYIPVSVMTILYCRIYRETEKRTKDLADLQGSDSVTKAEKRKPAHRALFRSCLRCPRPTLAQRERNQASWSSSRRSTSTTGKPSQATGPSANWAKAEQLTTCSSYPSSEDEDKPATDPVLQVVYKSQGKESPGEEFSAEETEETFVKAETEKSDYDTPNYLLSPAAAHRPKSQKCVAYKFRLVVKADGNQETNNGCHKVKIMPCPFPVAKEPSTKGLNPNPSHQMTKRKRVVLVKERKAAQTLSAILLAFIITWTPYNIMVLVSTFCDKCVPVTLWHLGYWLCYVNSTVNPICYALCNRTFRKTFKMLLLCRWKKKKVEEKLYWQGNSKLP
In words: CHRM5 Ca++ Flux Assay (M5_CHO cells, agonist mode). The note with it: for M5 FDSS PA % / Emax: Percent Activity (PA) measured to EC100 of Carbachol; for EC50: agonist mode, geometric mean if tested more than once, read-out: M5 FDSS EC50; for Emax: read-out: M5 FDSS PA %. In outline: (§1)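 CHO-K1 cells stably expressing human M3 or M5 receptor, dye-loaded ≥1 h, treated with 11-point compound doses in triplicate; Ca++ flux read over 3 min (FDSS). Agonist-mode four-parameter fit; percent activity relative to carbachol EC100; repeat tests reported as geometric mean.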

In assay [2] the target is T2, human cloned CHRM3 receptor (Homo sapiens, UniProt P20309).
T2 construct: expressed in transfected cells; host or cells: CHO-K1 (M3_CHO)
T2 sequence (P20309 whole entry): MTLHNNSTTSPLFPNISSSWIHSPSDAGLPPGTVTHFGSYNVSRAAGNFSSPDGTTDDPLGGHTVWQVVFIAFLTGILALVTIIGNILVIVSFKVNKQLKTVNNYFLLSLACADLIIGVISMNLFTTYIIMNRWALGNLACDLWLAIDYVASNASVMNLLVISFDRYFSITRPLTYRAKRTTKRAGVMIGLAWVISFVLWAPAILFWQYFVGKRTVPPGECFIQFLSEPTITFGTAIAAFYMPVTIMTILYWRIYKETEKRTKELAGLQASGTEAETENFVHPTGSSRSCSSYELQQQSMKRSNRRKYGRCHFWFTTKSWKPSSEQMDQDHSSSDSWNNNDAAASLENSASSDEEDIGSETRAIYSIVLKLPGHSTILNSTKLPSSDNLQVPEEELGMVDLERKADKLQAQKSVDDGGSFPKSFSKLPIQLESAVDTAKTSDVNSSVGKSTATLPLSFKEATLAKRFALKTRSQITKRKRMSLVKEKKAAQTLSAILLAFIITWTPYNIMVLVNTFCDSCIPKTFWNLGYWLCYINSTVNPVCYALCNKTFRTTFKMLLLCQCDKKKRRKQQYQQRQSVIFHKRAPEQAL
In words: CHRM3 Ca++ Flux Assay (M3_CHO cells, agonist mode). As to conditions: for M3 FDSS PA % / Emax: Percent Activity (PA) measured to EC100 of Carbachol; for EC50: agonist mode, geometric mean if tested more than once, read-out: M3 FDSS EC50; for Emax: read-out: M3 FDSS PA %. A digest of the protocol:
as §1

Assay [3] has as its target T3, human cloned CHRM2 receptor (Homo sapiens, UniProt P08172).
T3 construct: expressed in transfected cells; host or cells: CHO-K1 (M2_CHO)
T3 sequence (P08172 1-466): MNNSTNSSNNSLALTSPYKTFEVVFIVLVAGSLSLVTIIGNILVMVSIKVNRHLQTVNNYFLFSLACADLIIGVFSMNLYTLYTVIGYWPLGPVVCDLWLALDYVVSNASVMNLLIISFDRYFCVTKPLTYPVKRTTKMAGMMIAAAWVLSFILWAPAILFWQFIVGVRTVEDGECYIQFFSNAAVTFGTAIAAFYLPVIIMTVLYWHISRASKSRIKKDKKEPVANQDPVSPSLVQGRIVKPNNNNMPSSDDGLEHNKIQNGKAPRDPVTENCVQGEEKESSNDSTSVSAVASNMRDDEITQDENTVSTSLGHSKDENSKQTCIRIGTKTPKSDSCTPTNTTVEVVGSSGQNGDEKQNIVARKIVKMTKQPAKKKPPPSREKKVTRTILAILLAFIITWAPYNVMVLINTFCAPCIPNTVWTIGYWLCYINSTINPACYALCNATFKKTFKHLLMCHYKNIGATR
In words: CHRM2 Ca++ Flux Assay (M2_CHO cells, agonist mode). As to conditions: M2 CHO cells; for EC50: agonist mode, geometric mean if tested more than once, read-out: M2 FDSS EC50; for M2 FDSS PA % / Emax: Percent Activity (PA) measured to EC100 of Carbachol; for Emax: read-out: M2 FDSS PA %. A digest of the protocol:
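CHO-K1 cells stably expressing human CHRM2 were plated overnight at 12K cells/well and loaded with Ca++ dye for 1–2 h. They were then held 60 minutes in HBSS −Ca/−Mg, 20 mM HEPES, 2.5 mM probenecid, 20 μM ATP. Agonist-mode Ca++ flux was read over 3 minutes. Four-parameter fits of triplicates gave percent activity relative to carbachol EC100.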

For `c1ccc([C@@H]2CCOC2)c(C2CCN([C@@H]3COC4(C3)CN(c3nnco3)C4)CC2)c1` (single isomer, unassigned) [Example 3B, (S)-2-(1,3,4-oxadiazol-2-yl)-7-(4-(2-((S)-tetrahydrofuran-3-yl)phenyl)piperidin-1-yl)-5-oxa-2-azaspiro[3.4]octane or (S)-2-(1,3,4-oxadiazol-2-yl)-7-(4-(2-((R)-tetrahydrofuran-3-yl)phenyl)piperidin-1-yl)-5-oxa-2-azaspiro[3.4]octane], in assay [1], the “M5 FDSS PA %” value came out at 0% and the half-maximal effective concentration (EC50) is more than 25 µM. In addition, in assay [2], the “M3 FDSS PA %” value came out at 0% and the half-maximal effective concentration (EC50) is more than 25 µM. In assay [3], the EC50 came out at 1.5 µM and the “M2 FDSS PA %” value was found to be 31%.
Turning to `Fc1ccc([C@H]2CCOC2)c(C2CCN([C@@H]3COC4(C3)CN(c3nnco3)C4)CC2)c1` (single isomer, unassigned) [Example 3F, (S)-7-(4-(5-fluoro-2-((R)-tetrahydrofuran-3-yl)phenyl)piperidin-1-yl)-2-(1,3,4-oxadiazol-2-yl)-5-oxa-2-azaspiro[3.4]octane or (S)-7-(4-(5-fluoro-2-((S)-tetrahydrofuran-3-yl)phenyl)piperidin-1-yl)-2-(1,3,4-oxadiazol-2-yl)-5-oxa-2-azaspiro[3.4]octane], in assay [1], the “M5 FDSS PA %” value came to 0% and the EC50 was more than 25 µM. Further, in assay [2], the “M3 FDSS PA %” value worked out at 0% and the concentration for a half-maximal effect (EC50) is more than 25 µM. Besides, in assay [3], the EC50 is 0.406 µM and the “M2 FDSS PA %” value was 49%.
Consider `c1ccc(C2CCN([C@@H]3COC4(C3)CN(c3ncco3)C4)CC2)c(C2CCOCC2)c1` [Example 4V, (S)-2-(oxazol-2-yl)-7-(4-(2-(tetrahydro-2H-pyran-4-yl)phenyl)piperidin-1-yl)-5-oxa-2-azaspiro[3.4]octane], for which the Emax in assay [1] was determined as 0%; in assay [2], 0%; in assay [3] it was 14%. In addition, the 50% effective concentration (EC50) is more than 25 µM in assay [1], more than 25 µM in assay [2] and 10.7 µM in assay [3].
Consider `CC(C)(O)[C@H]1C[C@@H](Oc2ccc(F)cc2C2CCN([C@@H]3COC4(C3)CN(c3ncco3)C4)CC2)C1` (single isomer, unassigned) [Example 4T, 2-((1R,3s)-3-(4-fluoro-2-(1-((S)-2-(oxazol-2-yl)-5-oxa-2-azaspiro[3.4]octan-7-yl)piperidin-4-yl)phenoxy)cyclobutyl)propan-2-ol or 2-((1S,3r)-3-(4-fluoro-2-(1-((S)-2-(oxazol-2-yl)-5-oxa-2-azaspiro[3.4]octan-7-yl)piperidin-4-yl)phenoxy)cyclobutyl)propan-2-ol], for which, in assay [1], the “M5 FDSS PA %” value stood at 0% and the EC50 was more than 25 µM. In assay [2], the “M3 FDSS PA %” value turned out to be 0% and the 50% effective concentration (EC50) was more than 25 µM. In assay [3], the concentration for a half-maximal effect (EC50) amounted to 17.7 µM and the “M2 FDSS PA %” value was determined as 43%.
Turning to `c1ccc(C2CCN([C@@H]3COC4(C3)CN(c3ncco3)C4)CC2)c(O[C@@H]2CCOC2)c1` [Example 4F, (S)-2-(oxazol-2-yl)-7-(4-(2-(((R)-tetrahydrofuran-3-yl)oxy)phenyl)piperidin-1-yl)-5-oxa-2-azaspiro[3.4]octane], the Emax in assay [1] worked out at 0%; in assay [2], 0%; in assay [3], 17%. For the same compound, the results for the half-maximal effective concentration (EC50) in assay [1], in assay [2] and in assay [3] were more than 25 µM, more than 25 µM and 3.26 µM, respectively.
With `CC(C)(O)CCOc1ccc(F)cc1C1CCN([C@@H]2COC3(C2)CN(c2nncs2)C3)CC1` [Example 5P, (S)-4-(2-(1-(2-(1,3,4-thiadiazol-2-yl)-5-oxa-2-azaspiro[3.4]octan-7-yl)piperidin-4-yl)-4-fluorophenoxy)-2-methylbutan-2-ol], the Emax in assay [1] turned out to be 0%; in assay [2] it was 0%; in assay [3], 25%. Also, the concentration giving a half-maximal response (EC50) in assay [1] is more than 25 µM; in assay [2] it was more than 25 µM; in assay [3], 9.7 µM.
